# Where two headings read alike, the source gives them in different places.
# Assays:
# Assay type in all cases: in vivo
# Meloidogyne incognita = assay: Nematicidal (insecticidal) mortality assay on second instar larvae in well plate; conditions: for mortality at 12.5 µg/mL: 12.5 μg/ml; for mortality at 12.5 µg/mL / mortality at 25 µg/mL / mortality at 50 µg/mL / mortality at 100 µg/mL / mortality at 200 µg/mL / mortality at 400 µg/mL: 25° C, read-out: Corrected mortality (%); for mortality at 25 µg/mL: 25 μg/ml; for mortality at 50 µg/mL: 50 μg/ml; for mortality at 100 µg/mL: 100 μg/ml; for mortality at 200 µg/mL: 200 μg/ml; for mortality at 400 µg/mL: 400 μg/ml; for LC50: calculated with SPSS 26.0
# Description: (§1) 0.5 mg-1.5 mg of pyrrole-2-carboxaldehyde was dissolved in methanol and diluted with sterile distilled water as the test liquid. The dilution concentrations of each liquid medicine were 12.5 μg/ml, 25 μg/ml, 50 μg/ml, 100 μg/ml, 200 μg/ml and 400 μg/ml respectively, and the mass concentration of methanol in each liquid medicine was 5%. Water containing 5% methanol was used as a blank control.
# The infected tomato roots with Meloidogyne incognita were washed with water, and the oocysts of Meloidogyne incognita were picked by a dissecting needle and placed in 0.4 M KCl solution. The oocysts were washed and disinfected in a 5 ml centrifuge tube with 4 ml sterile water (three times), 1 ml sterile penicillin-streptomycin double antibody solution and 3 ml 0.1% NaClO solution, and the supernatant was removed in each step by short centrifugation (8000 rpm for 30 seconds). The washed eggs were incubated in 0.4 M ZnCl2 solution for 48 h, and the second instar larvae were collected in a 1.5 ml centrifuge tube with a pipette and enriched by short centrifugation (5000 rpm for 30 seconds) for subsequent use.
# 200 μl of the above test liquid was added to a 20-well plate with 100-150 live nematodes and placed at 25° C. […] Method for identification of mortality: 1-5 drops of 5% NaCl solution were added to the wells of the treatment plate and observed after 2 minutes; Dead nematodes were stiff and unresponsive to stimulation with a needle, while surviving nematodes were curled or wriggled.
# (§2) The whole experiment was repeated three times with the test liquid without samples as the control, and the average value was taken three times to calculate the corrected mortality.
# (§3) Mortality %=(number of dead nematodes/(number of dead nematodes+number of surviving nematodes))×100%
# (§4) Corrected mortality %=sample mortality−control mortality
# Meloidogyne arenaria = assay: Nematicidal (insecticidal) mortality assay in well plate; conditions: 48 h
# Description: as §1
# (§5) In addition, root-knot nematodes such as Meloidogyne hapla, Meloidogyne javanica and Meloidogyne arenaria were also prepared for testing.
# (§6) 200 μl of the above test liquid was added to a 20-well plate with 100-150 live nematodes and placed at 25° C. Subsequently, the nematodes were examined under an optical microscope at 12 h, 24 h and 48 h, respectively, to calculate the mortality. Method for identification of mortality: 1-5 drops of 5% NaCl solution were added to the wells of the treatment plate and observed after 2 minutes; Dead nematodes were stiff and unresponsive to stimulation with a needle, while surviving nematodes were curled or wriggled.
# as §2, §3, §4
# Meloidogyne hapla = assay: as above; conditions: 48 h
# Description: as §1, §5, §6, §2, §3, §4
# Meloidogyne javanica = assay: as above; conditions: 48 h
# Description: as §1, §5, §6, §2, §3, §4
smiles,measurement,setting,value
O=Cc1ccc[nH]1 [pyrrole-2-carboxaldehyde],mortality at 12.5 µg/mL,Meloidogyne incognita; 12 h,6.99 ± 1.99%
same,mortality at 12.5 µg/mL,Meloidogyne incognita; 24 h,16.6 ± 3.58%
same,mortality at 12.5 µg/mL,Meloidogyne incognita; 36 h,24.9 ± 4.7%
same,mortality at 12.5 µg/mL,Meloidogyne incognita; 48 h,30.3 ± 4.57%
same,mortality at 12.5 µg/mL,Meloidogyne incognita; 72 h,36.1 ± 5.08%
same,mortality at 25 µg/mL,Meloidogyne incognita; 12 h,15.8 ± 0.29%
same,mortality at 25 µg/mL,Meloidogyne incognita; 24 h,26.5 ± 0.53%
same,mortality at 25 µg/mL,Meloidogyne incognita; 36 h,36.3 ± 0.95%
same,mortality at 25 µg/mL,Meloidogyne incognita; 48 h,42.1 ± 1.51%
same,mortality at 25 µg/mL,Meloidogyne incognita; 72 h,48.5 ± 0.78%
same,mortality at 50 µg/mL,Meloidogyne incognita; 12 h,22.4 ± 0.43%
same,mortality at 50 µg/mL,Meloidogyne incognita; 24 h,36.63 ± 0.19%
same,mortality at 50 µg/mL,Meloidogyne incognita; 36 h,53.4 ± 3.16%
same,mortality at 50 µg/mL,Meloidogyne incognita; 48 h,56.6 ± 0.63%
same,mortality at 50 µg/mL,Meloidogyne incognita; 72 h,63.2 ± 0.99%
same,mortality at 100 µg/mL,Meloidogyne incognita; 12 h,24.3 ± 2.78%
same,mortality at 100 µg/mL,Meloidogyne incognita; 24 h,38.7 ± 2%
same,mortality at 100 µg/mL,Meloidogyne incognita; 36 h,62 ± 0.85%
same,mortality at 100 µg/mL,Meloidogyne incognita; 48 h,83.2 ± 1.29%
same,mortality at 100 µg/mL,Meloidogyne incognita; 72 h,88.27 ± 0.56%
same,mortality at 200 µg/mL,Meloidogyne incognita; 12 h,34.2 ± 1.74%
same,mortality at 200 µg/mL,Meloidogyne incognita; 24 h,64.3 ± 0.9%
same,mortality at 200 µg/mL,Meloidogyne incognita; 36 h,79.29 ± 0.7%
same,mortality at 200 µg/mL,Meloidogyne incognita; 48 h,93.3 ± 2.24%
same,mortality at 200 µg/mL,Meloidogyne incognita; 72 h,94.5 ± 1.89%
same,mortality at 400 µg/mL,Meloidogyne incognita; 12 h,47.5 ± 4.35%
same,mortality at 400 µg/mL,Meloidogyne incognita; 24 h,77.42 ± 0.58%
same,mortality at 400 µg/mL,Meloidogyne incognita; 36 h,93.2 ± 0.82%
same,mortality at 400 µg/mL,Meloidogyne incognita; 48 h,98.01 ± 0.2%
same,mortality at 400 µg/mL,Meloidogyne incognita; 72 h,99.26 ± 0.34%
same,LC50,Meloidogyne incognita; 24 h,84.7 µg/mL
same,LC50,Meloidogyne incognita; 48 h,30.7 µg/mL
same,LC50,Meloidogyne arenaria,31 µg/mL
same,LC50,Meloidogyne hapla,31.6 µg/mL
same,LC50,Meloidogyne javanica,33.6 µg/mL
